By IC50 is commonly meant the concentration at which inhibition is half-maximal. Read a low IC50 as higher potency.

Where only a bound is given, the exact number is not on record here.

A short description of one assay: Ratio of IC50 for vemurafenib IC50 to compound IC50 for human A375P cells. Format: functional.
`Cc1ccc(NC(=O)Nc2cc(C(F)(F)F)cc(C(F)(F)F)c2)cc1NC(=O)c1ccccc1`: the “Ratio IC50” value turned out to be 1.57.

Another assay in a line: Antiproliferative activity against human A375P cells. Format: functional, cell-based.
In the case of `CC(=O)Nc1cc(NC(=O)Nc2ccc3c(c2)OCO3)ccc1C`, the concentration for half-maximal inhibition (IC50) is more than 30 µM.

As for `Cc1ccc(NC(=O)Nc2cc(F)cc(C(F)(F)F)c2)cc1NC(=O)c1ccccc1`, the IC50 was more than 30 µM. With `CC(=O)c1cccc(NC(=O)Nc2ccc(C)c(NC(=O)c3ccccc3)c2)c1`, the IC50 turned out to be 9.8 µM. In other words, the single-digit micromolar range. On the same count and under the same terms, the value for `CC(=O)Nc1cc(NC(=O)c2cc(=O)c3ccccc3o2)ccc1C` was more than 30 µM.

In the case of `Cc1ccc(NC(=O)Nc2ccc3c(c2)OCO3)cc1NC(=O)c1ccccc1`, the IC50 was more than 30 µM. On the same count and under the same terms, the value for `CC(=O)Nc1cc(NC(=O)Nc2ccccc2Cl)ccc1C` was more than 30 µM; that for `Cc1ccc(NC(=O)c2ccc3c(c2)OCCO3)cc1NC(=O)c1ccccc1` was more than 30 µM; that for `CC(=O)Nc1cc(NC(=O)Nc2cc(Cl)cc(Cl)c2)ccc1C` was 0.561 µM. `Cc1ccc(NC(=O)Nc2ccc(C)c(NC(=O)c3ccccc3)c2)cc1C` returned an IC50 of more than 30 µM. `CC(=O)Nc1cc(NC(=O)Nc2ccc3c(c2)OCCO3)ccc1C` came in with an IC50 of more than 30 µM. Turning to `Cc1ccc(NC(=O)Nc2ccc3c(c2)OCCO3)cc1NC(=O)c1ccccc1`, the IC50 was more than 30 µM. Same read-out and setting: the value for `Cc1ccc(NC(=O)Nc2cc(Cl)cc(Cl)c2)cc1NC(=O)c1ccccc1` was 0.259 µM; that for `Cc1ccc(NC(=O)Nc2ccc(Cl)c(C(F)(F)F)c2)cc1NC(=O)c1ccccc1` was 1.3 µM; that for `CC(=O)Nc1cc(NC(=O)c2ccc(Cl)c(C(F)(F)F)c2)ccc1C` was more than 30 µM.

`CC(=O)Nc1cc(NC(=O)Nc2ccc(Cl)c(C(F)(F)F)c2)ccc1C` yielded an IC50 of 1.1 µM.

Consider `Cc1ccc(NC(=O)c2cc(=O)c3ccccc3o2)cc1NC(=O)c1ccccc1`, for which the half-maximal inhibitory concentration (IC50) is more than 30 µM. Consider `CC(=O)Nc1cc(NC(=O)Nc2ccc(Cl)nc2)ccc1C`, for which the half-maximal inhibitory concentration (IC50) is 1.1 µM. The same measure, in the same setting: in the case of `CC(=O)Nc1cc(NC(=O)Nc2cccc(Oc3ccccc3)c2)ccc1C` it was more than 30 µM; in that of `Cc1ccc(NC(=O)Nc2cc(C(F)(F)F)cc(C(F)(F)F)c2)cc1NC(=O)c1ccccc1`, 0.162 µM.

On to `CC(=O)Nc1cc(NC(=O)c2cc(C(F)(F)F)cc(C(F)(F)F)c2)ccc1C`, for which the IC50 is more than 30 µM. `Cc1ccc(NC(=O)Nc2ccc(Cl)nc2)cc1NC(=O)c1ccccc1` came in with an IC50 of 1.6 µM. Take `Cc1ccc(NC(=O)Nc2cccc(Oc3ccccc3)c2)cc1NC(=O)c1ccccc1`: the IC50 is more than 30 µM. `CC(=O)Nc1cc(NC(=O)Nc2cc(F)cc(C(F)(F)F)c2)ccc1C` registered a 50% inhibitory concentration (IC50) of more than 30 µM. `Cc1ccc(NC(=O)c2ccc(Cl)c(C(F)(F)F)c2)cc1NC(=O)c1ccccc1` gave an IC50 of more than 30 µM. `CC(=O)Nc1cc(NC(=O)Nc2ccc(Cl)c(Cl)c2)ccc1C` had an IC50 of 2.1 µM. The compound `Cc1cc(C(=O)Nc2ccc(C)c(NC(=O)c3ccccc3)c2)no1` had an IC50 of more than 30 µM. For `CC(=O)Nc1cc(NC(=O)Nc2ccc(C)c(C)c2)ccc1C`, the IC50 was more than 30 µM. `CC(=O)Nc1cc(NC(=O)Nc2cccc(C(C)=O)c2)ccc1C` showed an IC50 of 22.1 µM. With `CC(=O)Nc1cc(NC(=O)c2cc(C)on2)ccc1C`, the IC50 is more than 30 µM.

In turn, `CNC(=O)c1cc(Oc2ccc(NC(=O)Nc3ccc(Cl)c(C(F)(F)F)c3)cc2)ccn1` [SORAFENIB] yielded a half-maximal inhibitory concentration (IC50) of 2.7 µM. This counts as single-digit micromolar.

Turning to `CC(=O)Nc1cc(NC(=O)Nc2cc(C(F)(F)F)cc(C(F)(F)F)c2)ccc1C`, the IC50 came to 0.685 µM. This IC50 lies about 3.9-fold lower than the previous one.

`Cc1ccc(NC(=O)c2cc(C(F)(F)F)cc(C(F)(F)F)c2)cc1NC(=O)c1ccccc1`: the IC50 is more than 30 µM.

As for `Cc1ccc(NC(=O)Nc2ccc(Cl)c(Cl)c2)cc1NC(=O)c1ccccc1`, inhibition was half-maximal at 5.8 µM (IC50). `CC(=O)Nc1cc(NC(=O)c2ccc3c(c2)OCCO3)ccc1C` yielded an IC50 of 12.9 µM. In the case of `Cc1ccc(NC(=O)Nc2ccccc2Cl)cc1NC(=O)c1ccccc1`, the 50% inhibitory concentration (IC50) was more than 30 µM.

Values taken from ChEMBL document CHEMBL2203179, “New diarylureas and diarylamides possessing acet(benz)amidophenyl scaffold: design, synthesis, and antiproliferative activity against melanoma cell line” (Bioorg Med Chem Lett, 2012).
